US9381245B2, “Methods for inhibiting osteolysis” (New York University, priority 2012, dated 2016)
“Also recorded” adds a separate entry of the source.

How the values were obtained:
RANK = RANK staining of calvarium in murine model of wear particle-induced osteolysis; assay type: in vivo, mice; settings: wear particles 4 weeks; saline containing CGS21680 1 μM
Method: (§1) A. Shown are representative sections (from 10 different mice) of mouse calvarium after formation of an air pouch alone (sham) or after formation of an air pouch and exposure to wear particles for 4 weeks in the presence of saline or saline containing CGS21680 (1 μM), as we have previously described (Mediero, et al., Sci Transl Med, 2012. 4(135): 135-65). Dark brown staining is positive. B. RNA was isolated from normal human osteoblasts (Alizarin Red+/Alkaline Phosphatase+ cells) after differentiation from normal marrow cells in the presence or absence of CGS21680 (1 μM). Real time RT-PCR was carried out for RANKL and normalized to GAPDH. Shown are mean (+/−SD) results of two different samples carried out in duplicate.

RANKL [1] = test: RANKL real time RT-PCR in normal human osteoblasts differentiated from marrow cells; assay type: cell-based; settings: CGS21680 1 μM; normalized to GAPDH
Method: as §1

Unc5b = test: Western blot of Unc5b in RAW264.7 cells differentiating to osteoclasts; assay type: cell-based, murine; settings: CGS21680 1 μM
Method: (§2) A.) Bone marrow cells from WT and radiation chimeric netrin^−/− bone marrow mice were isolated and induced to differentiate into osteoclasts by incubation with RANKL and M-CSF. […] Cells from 5 different mice repeated in duplicate. […] A2A receptor stimulation reduces Unc5b, but not DCC, expression. Representative of 2 experiments. C. Bone mineral density (BMD) determined by Pixamouse small animal Dexa scanner. WT mice and Netrin1 KO mice are chimeras generated by infusion of either normal or netrin-1 deficient fetal liver into lethally irradiated congenic C57Black/6 mice. BMD was measured 18 weeks after transplant. Shown are the results of determinations on 5 mice in each group. […] Representative of 5 different mice with each treatment. E. Soft tissue from patients stained for semaphorin 4D (original magnification 800×). On the left is soft tissue obtained at the time of hip replacement (Representative of 14). […] On the right is tissue obtained at time of prosthesis revision (representative of 12).

RANKL [2] = test: RANKL staining of calvarium in murine model of wear particle-induced osteolysis; assay type: in vivo, mice; settings: wear particles 4 weeks; saline containing CGS21680 1 μM
Method: as §1

osteoprotegerin = test: Osteoprotegerin staining of calvarium in murine model of wear particle-induced osteolysis; assay type: in vivo, mice; settings: wear particles 4 weeks; saline containing CGS21680 1 μM
Method: as §1

netrin-1 [3] = test: Netrin-1 expression in inflammatory infiltrate in wear particle-induced osteolysis; assay type: in vivo; settings: wear particle-induced osteolysis in mice
Method: as §2
Staining for netrin-1 was carried out in collaboration with Dr. Kathryn Moore's laboratory, an internationally known expert on the role of this protein in macrophage function in atherosclerosis (van Gils, et al., Nat Immunol, 2012, 13(2): 136-43). […]

netrin-1 [4] = test: Western blot of netrin-1 in supernate of RAW264.7 cells differentiating to osteoclasts; assay type: cell-based, murine; settings: CGS21680 1 μM, RANKL and M-CSF
Method: as §2

[5] = tested on: bone marrow cells induced to differentiate into osteoclasts; test: Osteoclast differentiation of bone marrow cells with RANKL and M-CSF (TRAP+ osteoclasts); assay type: cell-based, mice
Method: as §2
Consistent with this observation it was shown that radiation chimeras with netrin-1^−/− replacement bone marrow have increased bone mineral density, as measured by Dexa scan (FIG. 4). […]

NFκB p50/p105 = NFκB p50/p105 nuclear translocation in RAW264.7 cells with RANKL (Western blot); assay type: cell-based, murine; settings: CGS21680 1 μM; 30 min with RANKL; PKA-ERK1/2 mechanism
Method: RAW264.7 cells were infected with lentiviral constructs expressing shRNA for the catalytic subunit of PKA or a scrambled control. Cells were incubated for 30 min in the presence of RANKL alone, plus CGS21680 (1 μM, CGS) or plus CGS and ZM241385 (1 μM, C+Z) before lysis, separation of nuclear and cytosolic fractions and analysis by Western Blot. Shown are representative Western Blots. Results in the bar graphs are expressed as the means of four independent experiments analyzed densitometrically and normalized to actin. Results were analyzed by two way ANOVA and Bonferroni post-hoc testing.

sema4D-expressing cells = test: Sema4D staining of calvarium in murine model of wear particle-induced osteolysis; assay type: in vivo; settings: wear particle-treated mice; immunostaining
Method: A.) Total cell lysates from primary murine bone marrow cells alone (basal) or after osteoclast differentiation in the presence of saline, CGS21680 (1 μM) with/without ZM241385 (1 μM) were subject to Western Blot detection of sema4D. Shown is a representative experiment of 3. B.) RAW264.7 osteoclasts, infected with a lentiviral vector expressing either shRNA for the catalytic subunit of PKA, scrambled shRNA, or primary murine bone marrow cells were cultured in the presence of saline (Black line) or CGS21680 (1 μM, Red Line) with/without ZM241385 (1 μM, Blue Line) for the time periods indicated before harvest of the cells, collection of RNA and real time RTPCR. Results represent the means (±SEM) of 5 separate determinations. C. Calvarium from sham or wear particle-treated wild type (C57B1/6) mice or adenosine A2A receptor knockout mice (C57B1/6 background) were stained for sema4D. D. Soft tissue from patients stained for semaphorin 4D (original magnification 800×). On the left is soft tissue obtained at the time of joint replacement (Representative of 14). On the right is tissue obtained at time of prosthesis revision (representative of 12). […] In this model ultra high molecular weight polyethylene particles (UHMWPE) are injected into an air pouch overlying the calvaria and the area of bone resorption is measured. […]

semaphorin 4D = test: Sema4D expression (Western blot, real time RT-PCR) in osteoclasts from primary murine bone marrow cells and RAW264.7 cells; assay type: cell-based; settings: CGS21680 1 μM; protein kinase A-dependent
Method: A.) Total cell lysates from primary murine bone marrow cells alone (basal) or after osteoclast differentiation in the presence of saline, CGS21680 (1 μM) with/without ZM241385 (1 μM) were subject to Western Blot detection of sema4D. Shown is a representative experiment of 3. B.) RAW264.7 osteoclasts, infected with a lentiviral vector expressing either shRNA for the catalytic subunit of PKA, scrambled shRNA, or primary murine bone marrow cells were cultured in the presence of saline (Black line) or CGS21680 (1 μM, Red Line) with/without ZM241385 (1 μM, Blue Line) for the time periods indicated before harvest of the cells, collection of RNA and real time RTPCR. Results represent the means (±SEM) of 5 separate determinations. C. Calvarium from sham or wear particle-treated wild type (C57B1/6) mice or adenosine A2A receptor knockout mice (C57B1/6 background) were stained for sema4D. D. Soft tissue from patients stained for semaphorin 4D (original magnification 800×). On the left is soft tissue obtained at the time of joint replacement (Representative of 14). On the right is tissue obtained at time of prosthesis revision (representative of 12).

[6] = tested on: wear particle-induced osteolysis; test: New bone formation at sites of wear particle-induced osteolysis (Xenolight Rediject Bone Probe 680, IVIS); assay type: in vivo, mice; settings: daily injections of CGS21680 into air pouch over calvarium
Method: Mice (C57B1/6) underwent formation of an air pouch over the calvarium and then exposed to saline (sham) or wear particles […] followed by daily injections of 200 μl of saline or CGS21680, as previously described. Animals were injected with Xenolight Rediject Bone Probe 680 (2 nmoles in 150 ul) followed by scanning in the IVIS apparatus. The intensity of staining is indicated by increasing yellow coloration. The fluorescence is detectable without change for 3-4 days and persists for as long as 2 weeks although all of these scans were taken on the day of injection. Shown are representative scans of ⅕ animals per group. The intensity of fluorescence was quantitated in a specific area of interest using software provided with the apparatus and the mean (±SEM) was calculated for 5 animals in each. In these experiments osteolysis will be monitored as porosity of the calvaria, measured by microCT, as has been previously described (Mediero, et al., Sci Transl Med, 2012. 4(135): 135-65). […] In addition, sema4D, netrin-1, GM-CSF, M-CSF, IP-10, MCP-1, IL-1, TNF, IL-6, IL-10, osteoprotegerin, osteocalcin and RANKL in supernates of cultured calvaria will be quantified by luminex assay, as has been previously described (Mediero, et al., Sci Transl Med, 2012. 4(135): 135-65). […]

For `CCNC(=O)[C@H]1O[C@@H](n2cnc3c(N)nc(NCCc4ccc(CCC(=O)O)cc4)nc32)[C@H](O)[C@@H]1O` [CGS21680], the “RANK expression in calvarium” value (RANK) was “diminishes RANK”, the “RANKL mRNA in differentiating osteoblasts” value (RANKL [1]) was “diminishes RANKL mRNA” and the Unc5b expression (Unc5b) was “reduces Unc5b”. The “RANKL expression in calvarium” value (RANKL [2]) was “diminishes RANK, RANKL”, the “osteoprotegerin expression in calvarium” value (osteoprotegerin) was “increases osteoprotegerin expression” and the “netrin-1 expression in the inflammatory infiltrate” value (netrin-1 [3]) was “inhibits its expression”. The “netrin-1 in the supernate of RAW264.7 cells” value (netrin-1 [4]) was “reduces netrin-1”, the “osteoclast differentiation in WT cells” value ([5]; CGS21680 1 μM, RANKL and M-CSF, WT bone marrow cells) was “reduces osteoclast differentiation” and the “NFκB p50/p105 nuclear translocation” value (NFκB p50/p105) was “inhibits”. The “number of sema4D-expressing cells in the calvaria” value (sema4D-expressing cells) was “dramatically decreased; also recorded: diminishes recruitment of semaphorin 4D positive cells”, the “semaphorin 4D expression by osteoclasts” value (semaphorin 4D) was “inhibits” and the “new bone formation at sites of wear particle-induced osteolysis” value [6] was “restored”.

For `Nc1nc(NCCc2ccc(O)cc2)nc2nc(-c3ccco3)nn12` [ZM241385], the “reversal of the A2A receptor agonist (CGS21680) reduction of osteoclast differentiation” value ([5]; WT cells with CGS21680 1 μM, netrin-1 250 ng/ml) was “reversed”.
